Literature values in PMC9008720 (Biomedical chromatography : BMC, 2022).

System: GBM tumor
Conditions: ref Zalcman et al., 2018

In the case of `CNC(=O)c1ccc(N2C(=S)N(c3ccc(C#N)c(C(F)(F)F)c3)C(=O)C2(C)C)cc1F` [enzalutamide], the “GBM tumor growth in nude mice” value is given as “reduced the GBM tumor growth”.
